This note sets out measurements from patent US4320148A, “2-Aminotetralin compounds, pharmaceutical compositions and method of producing central alpha1 agonist activity” (SmithKline Corporation, priority 1980, dated 1982).

The assay relates to postjunctional alpha1 receptor (isolated rabbit ear artery segment). Kind of assay: postjunctional alpha1 agonist activity (EC50), isolated segment of rabbit ear artery. The assay is classed as cell-based. The settings on record: isolated rabbit ear artery segment superfused with oxygenated Krebs solution; maximum response of the artery determined with norepinephrine; read-out: EC50 (dose required to produce 50% of the maximum response). As to the method:
A quantitation of postjunctional alpha1 agonist activity (EC50) is determined for compounds showing activity in the above test. This is accomplished by employing an isolated segment of rabbit ear artery. The segment is mounted in a chamber superfused with oxygenated Krebs solution. The segment is suspended between two tungsten wires, one attached to the chamber, the other to a force-displacement transducer so that smooth muscle tension can be measured directly. Before administration of the test drug, norepinephrine is administered in increasing concentration (10^-8 M to 3×10^-6 M) to determine maximum response of the artery. The dose required to produce 50% of the maximum response is the EC50.
Broadly, the EC50 is the concentration needed to bring the measured effect to its halfway point. On to `COc1ccc(OC)c2c1CCC(N)C2` (stereo not shown) [SK&F 87,696], for which the EC50 was found to be 110 nM.

Regarding `COc1ccc(OC)c2c1CCC(N(C)C)C2` (stereo not shown) [SK&F 88,444], the EC50 was found to be 100 nM.

As for `COc1ccc(SC)c2c1CC(N)CC2` (stereo not shown) [SK&F 89,748, 1,2,3,4-tetrahydro-8-methoxy-5-(methylthio)-2-naphthalenamine], the EC50 is 9.3 nM.

As to `COc1ccc(SC)c2c1CC(N(C)C)CC2` (stereo not shown) [SK&F 89,900, 1,2,3,4-tetrahydro-8-methoxy-N,N-dimethyl-5-(methylthio)-2-naphthalenamine], the 50% effective concentration (EC50) is 13 nM.
